Measurements as given in ChEMBL document CHEMBL1201862, “PubChem BioAssay data set” (2004).
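Following 48 hours of exposure in 96-well plates, responses at five concentrations were used to interpolate endpoints linearly. GI50 is the concentration that inhibits growth by half.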 Activity calls are given as the source filed them. Cut-off read from the data, not from the text of the source: active = GI50 up to about 1.1 µM and inactive = higher.

Columns and labels:
Test in all cases: NCI-60 cell line screen, 48 h
786-0 = tested on: 786-0
A498 = tested on: A498
A549 = tested on: A549
ACHN = tested on: ACHN
BT-549 = tested on: BT-549
CAKI-1 = tested on: CAKI-1
CCRF-CEM = tested on: CCRF-CEM
COLO 205 = tested on: COLO 205
DU-145 = tested on: DU-145
EKVX = tested on: EKVX
HCC 2998 = tested on: HCC 2998
HCT-116 = tested on: HCT-116
HCT-15 = tested on: HCT-15
HL-60 = tested on: HL-60
HOP-62 = tested on: HOP-62
HT-29 = tested on: HT-29
Hs-578T = tested on: Hs-578T
IGROV-1 = tested on: IGROV-1
K562 = tested on: K562
KM12 = tested on: KM12
LOX IMVI = tested on: LOX IMVI
M14 = tested on: M14
MCF7 = tested on: MCF7
MDA-MB-231 = tested on: MDA-MB-231
MDA-MB-435 = tested on: MDA-MB-435
MDA-N = tested on: MDA-N
MOLT-4 = tested on: MOLT-4
Malme-3M = tested on: Malme-3M
NCI-H226 = tested on: NCI-H226
NCI-H23 = tested on: NCI-H23
NCI-H460 = tested on: NCI-H460
NCI-H522 = tested on: NCI-H522
NCI/ADR-RES = tested on: NCI/ADR-RES
OVCAR-3 = tested on: OVCAR-3
OVCAR-4 = tested on: OVCAR-4
OVCAR-5 = tested on: OVCAR-5
OVCAR-8 = tested on: OVCAR-8
PC-3 = tested on: PC-3
RPMI-8226 = tested on: RPMI-8226
RXF 393 = tested on: RXF 393
SF-268 = tested on: SF-268
SF-295 = tested on: SF-295
SF-539 = tested on: SF-539
SK-MEL-28 = tested on: SK-MEL-28
SK-MEL-2 = tested on: SK-MEL-2
SK-MEL-5 = tested on: SK-MEL-5
SK-OV-3 = tested on: SK-OV-3
SN12C = tested on: SN12C
SNB-19 = tested on: SNB-19
SNB-75 = tested on: SNB-75
SR = tested on: SR
SW-620 = tested on: SW-620
T47D = tested on: T47D
TK-10 = tested on: TK-10
U-251 = tested on: U-251
UACC-257 = tested on: UACC-257
UACC-62 = tested on: UACC-62
UO-31 = tested on: UO-31

In the case of `C[N+](C)([O-])C12CC3CC(CC(C3)C1)C2`, the GI50 (786-0) is reported as 25.5 µM (inactive), the GI50 (A498) is reported as 22 µM (inactive) and the GI50 (A549) is reported as 25.8 µM (inactive). For the same compound, the GI50 (ACHN) was 26.4 µM (inactive), the GI50 (BT-549) was 34 µM (inactive) and the GI50 (CAKI-1) was > 100 µM (inactive). The GI50 (CCRF-CEM) was 34.1 µM (inactive), the GI50 (COLO 205) was 27 µM (inactive) and the GI50 (DU-145) was 37.2 µM (inactive). The GI50 (EKVX) was 21.4 µM (inactive), the GI50 (HCC 2998) was 29.4 µM (inactive) and the GI50 (HCT-116) was 23.9 µM (inactive). The GI50 (HCT-15) was 30.6 µM, the GI50 (HL-60) was 44.6 µM (inactive) and the GI50 (HOP-62) was 24 µM (inactive). The GI50 (HT-29) was 35.6 µM (inactive), the GI50 (Hs-578T) was 55.6 µM (inactive) and the GI50 (IGROV-1) was 25.3 µM (inactive). The GI50 (K562) was 29.4 µM (inactive), the GI50 (KM12) was 26.8 µM (inactive) and the GI50 (LOX IMVI) was 27.2 µM (inactive). For the same compound, the GI50 (M14) was 25.7 µM (inactive), the GI50 (MCF7) was 33.1 µM (inactive) and the GI50 (MDA-MB-231) was > 100 µM (inactive). The GI50 (MDA-MB-435) was 28.4 µM (inactive), the GI50 (MDA-N) was 31.8 µM (inactive) and the GI50 (MOLT-4) was 29.3 µM (inactive). For the same compound, the GI50 (Malme-3M) was 54.3 µM (inactive), the GI50 (NCI-H226) was 55.2 µM (inactive) and the GI50 (NCI-H23) was 28.2 µM (inactive). For the same compound, the GI50 (NCI-H460) was 43.7 µM (inactive), the GI50 (NCI-H522) was 27.2 µM (inactive) and the GI50 (NCI/ADR-RES) was 31.6 µM (inactive). The GI50 (OVCAR-3) was 16.4 µM (inactive), the GI50 (OVCAR-4) was 33.1 µM (inactive) and the GI50 (OVCAR-5) was 39.6 µM (inactive). For the same compound, the GI50 (OVCAR-8) was 40.1 µM (inactive), the GI50 (PC-3) was 22.4 µM (inactive) and the GI50 (RPMI-8226) was 29.9 µM (inactive). The GI50 (RXF 393) was 37.5 µM (inactive), the GI50 (SF-268) was 38.3 µM (inactive) and the GI50 (SF-295) was 30 µM (inactive). For the same compound, the GI50 (SF-539) was 23.4 µM (inactive), the GI50 (SK-MEL-28) was 32.4 µM (inactive) and the GI50 (SK-MEL-2) was 22.6 µM (inactive). For the same compound, the GI50 (SK-MEL-5) was 27.2 µM (inactive), the GI50 (SK-OV-3) was 61.9 µM (inactive) and the GI50 (SN12C) was 33.7 µM (inactive). For the same compound, the GI50 (SNB-19) was 46.3 µM (inactive), the GI50 (SNB-75) was 28.2 µM (inactive) and the GI50 (SR) was 41.3 µM (inactive). The GI50 (SW-620) was 41.8 µM (inactive), the GI50 (T47D) was 26.9 µM (inactive) and the GI50 (TK-10) was 20.9 µM (inactive). For the same compound, the GI50 (U-251) was 37.4 µM (inactive), the GI50 (UACC-257) was 39.2 µM (inactive) and the GI50 (UACC-62) was 20.1 µM (inactive). For the same compound, the GI50 (UO-31) was 13.9 µM (inactive).
